Reference: US9181172B2, “Rhein conjugates, preparation method thereof and their uses in producing medicines for treating diabetic nephrosis, intestinal adhesion and osteoarthritis” (priority 2005, dated 2015)
Counter-ions that a name gives are not always drawn.

What was measured:
Assay type in all cases: in vivo
rats [1] = assay: Formation of granuloma in rats (arthritis example, test 4); conditions: 20 mg/kg intragastric, two weeks
Description: Rats were randomly divided into five groups (model control group, indomethacin group, rhein glucosamine large dose group and small dose group and rhein sodium group). Each group has 10 […]. According to the method in the literature [Xu Shuyun, Methodology in Pharmacological Experiment (the 3rd version): 918], the models were built, and the rats were administered with medicines since the day when starting operations. […] Two weeks later, the rats were killed and test was carried on according to the method in the literature. The net weight of granulation was calculated, and t test was used for the intergroup comparison.

mice [2] = assay: Capillary permeability of mice; conditions: dosage 12 mg/kg
Description: Each group has 12 mice, administration: 0.20 ml/10 g. Mice in the model control group were administrated with isovolumic physiologic saline.

[3] = system: obese rats of high-fat and high-sugar diet; assay: Body weight of obese rats of high-fat and high-sugar diet; conditions: Group E
Excerpt: Group A: conventional diet, 4 weeks later, started to carry on intragastric administration, and the same volume of distilled water as the control, once daily, three weeks in succession.
Group B: high-fat high-sugar diet, 4 weeks later, started to carry on intragastric administration, and the same volume of distilled water as the model control, once daily, three weeks in succession.
Group C: high-fat high-sugar diet, 4 weeks later, started to carry on intragastric administration of rhein lysine conjugates [dose: 90 mg/kg (0.209 mmol/kg), prepared by distilled water], once daily, three weeks in succession.
Group D: high-fat high-sugar diet, 4 weeks later, started to carry on intragastric administration of rhein lysine conjugates [dose: 45 mg/kg (0.105 mmol/kg), prepared by distilled water], once daily, three weeks in succession.
Group E: high-fat high-sugar diet, 4 weeks later, started to carry on intragastric administration of rhein sodium [dose: 65 mg/kg (0.212 mmol/kg), prepared by distilled water], once daily, three weeks in succession.

rats [4] = assay: Carrageenan-induced acute pleurisy exudation and leukoplania in rats; conditions: intraperitoneal 20 mg/kg, four hours after carrageenan
Description: Forty male rats of 200±20 g weight were selected and divided into five groups, namely, model control group, indomethacin group, rhein sodium group, rhein glucosamine large dose group and small dose group. Eight rats for each group. The rats were administered with medicines by intraperitoneal administration, one hour later, the rats were induced with acute pleurisy by carrageenan according to the method in the literature [Xu Shuyun, Methodology in Pharmacological Experiment (the 3rd version): 916]. Four hours later, the rats were killed and the volume of pleural effusion and total white cell count were measured.

rats [5] = assay: Intestinal adhesion in rats; conditions: 6 mg/kg once a day, 7th day
Description: Rats were fasted for 12 h and models were built according to the methods in the literature [Xu Shuyun, Methodology in Pharmacological Experiment (the 3rd version): 1335]. The rats were randomly divided into five groups, namely, model control group, dexamethasone group, rhein sodium group, rhein glucosamine large dose group and low dose group. Each group included 12 rats. […] The rats of the model group were administered with the same volume of NS, while the rats of the positive control group were administered with dexamethasone, administered once every two days, dose: 10 mg/kg. The administration volume was the same as the treatment group. The rats were killed on the 7th day and carried on laparotomy. Adhesion degree was classified and scored respectively. The classification and score of the observed index-adhesion degree can refer to the five-grade classification method prepared by Nair, and determine the classification standard, see Schedule 13. Intestinal adhesion classification adopts Ridit analysis. The test results are as follows (Table 14): […]

rats [6] = assay: Formation of cotton ball granuloma in rats (Example 59 Test 2); conditions: 12 mg/kg intragastric, two weeks
Description: Rats were randomly divided into five groups (model control group, indomethacin group, rhein glucosamine large dose group and low dose group and rhein sodium group). Each group included 10 rats, and built models according to the method in the literature [Xu Shuyun, Methodology in Pharmacological Experiment (the 3rd version): 918]. The rats were administered by medicines from the day when starting the operation. […] The rats were killed in two weeks, and tests were performed according to the methods in the literature, the net weight of granulation was calculated, and t test was used for the intergroup comparison.

mice [7] = assay: Intestinal propulsion in mice; conditions: dosage 12 mg/kg, intravenous injection
Description: Fifty mice, male, weighting from 18 to 22 g, were randomly divided into five groups, namely, model control group, domperidone group, rhein sodium group, rhein glucosamine large dose group and low dose group.
Each group has 10 mice respectively. The mice were fasted, but water was not prohibited, and then administered with medicines by intravenous injection. After that, tests were carried on immediately according to the methods in the literature[Xu Shuyun, Methodology in Pharmacological Experiment (the 3rd version): 1313]. The intestinal propulsive rates were calculated, and t test was used for the intergroup comparison.

obese hyperglycemia mice = assay: Body weight and blood glucose of obese hyperglycemia mice
Description: 9-week-old obese mice of hyperglycemia were randomly divided into: rhein sodium group, non-treatment group, rosiglitazone group, rhein lysine high-dose group and low-dose group, each group has 6 mice. Kunming mice of the same age were used as the control group, which were fed by conventional feedstuff with free food and water feeding. Rhein lysine conjugates [the dose is 180 mg/kg (0.418 mmol/kg) and 90 mg/kg (0.209 mmol/kg) for intragastric infusion, prepared with distilled water], dose of the rhein sodium group is 130 mg/kg (0.424 mmol/kg), the mixture was dissolved with distilled water, intragastric administration; rosiglitazone group (the dose is 4 mg/kg), the mixture was dissolved with distilled water, intragastric administration, and the rats of the other two groups were administered with the same volume of distilled water, once a day, 12 weeks of administration in succession. The animals' body weight and blood sugar were measured regularly, and statistical analysis was conducted.

mice [8] = assay: Xylene-induced swelling of auricle in mice; conditions: ig 40 mg/kg, 3 days
Description: Fifty male Kunming mice were selected, weighing 18-22 g each, and randomly divided into five groups, namely, model control group, aspirin group, rhein sodium group, rhein glucosamine large dose group and low dose groups. Each group had 10 mice respectively. The mice were administered with medicines by intragastric administration every day, for 0.2 ml/10 g body weight. The mice of the model control group were administered with equal volume of physiological saline, once every day, continuously administration for 3 days. After 60 minutes of the final administration, carried on test according to the method in the literature [Xu Shuyun, Methodology in Pharmacological Experiment (the 3rd version): 911]. The sweeling degree of auricle was calculated and statistical analysis was conducted.

[9] = baseline of group given ig 130 mg/kg once a day

SMILES: O=C(O)c1cc(O)c2c(c1)C(=O)c1cccc(O)c1C2=O [Rhein sodium salt, rhein sodium salt]
- Net weight of granulation (rats [1]): 15.23 ± 2.99Δ Δ mg
- absorbance value (mice [2]): 0.494 ± 0.134
- The body weight increased 7 weeks after high-sugar high-fat diet ([3]; after three weeks ig 65 mg/kg once daily): 17.1 ± 4.1 g
- The body weight increased 4 weeks after high-sugar high-fat diet ([3]; before start of ig 65 mg/kg): 15.8 ± 4.3 g
- Volume of exudation fluid (rats [4]): 0.33 ± 0.12
- WBC (rats [4]): 3.98 ± 1.64 ×109/L
- Rating of adhesion degree 0 (rats [5]; number of 12 rats with completely no adhesion): 1
- Rating of adhesion degree III (rats [5]; number of 12 rats with more than two adhering zones): 3
- Rating of adhesion degree I (rats [5]; number of 12 rats with one adhering zone): 4
- Rating of adhesion degree IV (rats [5]; number of 12 rats with organs adhering to abdominal wall directly): 2
- Rating of adhesion degree II (rats [5]; number of 12 rats with two adhering zones): 2
- net weight of granulation (rats [6]): 15.87 ± 3.31 mg
- Propulsive rate (mice [7]): 51.69 ± 7.1 %
- Blood glucose prior to administration (obese hyperglycemia mice; [9]): 28.9 ± 4.8 mmol/L
- Body weight prior to administration (obese hyperglycemia mice; [9]): 28.9 ± 1.8 g
- Blood glucose 6 w after administration (obese hyperglycemia mice; ig 130 mg/kg once a day): 31.2 ± 5.5 mmol/L
- Blood glucose 9 w after administration (obese hyperglycemia mice; ig 130 mg/kg once a day): 33.5 ± 5.4 mmol/L
- Blood glucose 12 w after administration (obese hyperglycemia mice; ig 130 mg/kg once a day): 30.1 ± 4.5 mmol/L
- Body weight 6 w after administration (obese hyperglycemia mice; ig 130 mg/kg once a day): 35.8 ± 1.5 g
- Body weight 9 w after administration (obese hyperglycemia mice; ig 130 mg/kg once a day): 39.5 ± 1.4 g
- Body weight 12 w after administration (obese hyperglycemia mice; ig 130 mg/kg once a day): 41.1 ± 1.5 g
- inhibition rate (mice [8]): 29.8%
- swelling degree of auricle (mice [8]): 12.5 ± 2.2 mg
